In paper PMC11187260, “Unraveling the interconversion pharmacokinetics and oral bioavailability of the major ginger constituents: [6]-gingerol, [6]-shogaol, and zingerone after single-dose administration in rats” (Frontiers in Pharmacology, 2024):
Read-outs that look alike come from different tables or passages of the source.

How the values were obtained:
[1] = Percent recovery in urine and feces after intravenous or oral administration; type: in vivo, Female Sprague Dawley rats; details: for parent compound recovered in urine: during 24–48 h; for dose excreted: female, Sprague Dawley, rat, % of administered dose; for unchanged form in fecal excretion: within 48 h after intravenous or oral administration
Procedure: (§1) This study is composed of two sections; the first section involves an investigation of the interconversion pharmacokinetics of the pure compounds, and the second focuses on tissue distribution. All rats were transferred to metabolic cages and fasted overnight for at least 10 h. The animals were then randomly divided into four groups (6 rats/group) to receive a single intravenous (i.v.) administration of either 6G, 6S, zingerone, or vehicle via the lateral tail vein at a dosage of 3 mg/kg. After a 7-week washout period, the rats received 30 mg/kg of the same test compounds through a single oral (p.o.) administration. Following each administration, blood samples (300 µL) were collected in heparinized tubes from the lateral tail vein (while rats were under anesthesia with isoflurane) at specified time points: 0.083, 0.25, 0.5, 1, 1.5, 2, 3, 4, 6, 8, and 24 h after administration. An additional 1 mL of blood sample was collected from each rat at pre-dose (0 h) and post-dose (24 h) for clinical laboratory testing and safety evaluation. All heparinized blood samples were initially centrifuged at 5,000 × g, 4 °C, for 10 min. Subsequently, the plasma was carefully transferred to a cryotube as an aliquot sample and then stored at −40 °C until analysis. Urine and feces were collected during the intervals of 0–24 h and 24–48 h post-dosing, and their weights and volumes were documented. All collected urine and feces samples were stored at −40 °C until analysis.
(§2) Urine samples were centrifuged, and 50 µL of urine was extracted with 200 µL of 100% methanol. The mixture was vortexed for 10 min and subsequently centrifuged at 14,000 × g at 4 °C for 10 min. Feces and organs were weighed and homogenized with methanol (50:50% w/v). The supernatants of the extracted urine, feces, and organs were also filtered through a […] PVDF membrane (Chrome Tech, MN, USA) before analysis.
(§3) Investigation of glucuronide conjugations followed a previously published method with some modification ([Wang et al., 2017]; [Songvut et al., 2023]). A 50 μL aliquot of plasma, urine, or feces sample was incubated at 37 °C for a minimum of 30 min with 50 μL of β-glucuronidase (3,000 U/mL) in a sodium phosphate buffer (pH 6.8). For sample extraction, 150 μL of methanol containing 50 μg/L of IS was pipetted into the pre-incubated samples. Subsequently, the mixtures were vortexed for 10 min and then centrifuged at 14,000 × g at 4 °C for 10 min. The supernatants were filtered through a […] PVDF membrane (Chrome Tech, MN, United States) and then analyzed using the validated LC-MS/MS method.
(§4) Plasma concentration-time profiles were plotted using GraphPad Prism 9.3.0 (GraphPad Software, USA). The absolute oral bioavailability was calculated as follows: F = (AUC p.o./dose p.o.)/(AUC i.v./dose i.v.). The percentage recovery of each administered compound was calculated as the total amount of the drug found in urine or feces divided by the administered dose. The tissue-to-plasma concentration ratios (K p) were calculated by dividing the concentration in the tissue by the corresponding plasma concentration at the respective sampling time point.

[2] = Pharmacokinetics and oral bioavailability after single oral administration (30 mg/kg), plasma LC-MS/MS; type: in vivo, Female Sprague Dawley rats; details: for bioavailability / AUC(0-inf) / AUC(0-t) / Tmax: plasma, 30 mg/kg; for AUC(0-t): read-out: AUC(0-t); for Tmax: median [IQR]; for presence of parent compound in plasma: following oral administration
Procedure: as §1
Plasma samples were processed through protein precipitation. In brief, 50 µL of plasma was mixed with 200 µL of methanol containing 50 ng/mL of IS (dihydrocapsaicin). The mixtures were vortexed and centrifuged at 14,000 × g at 4 °C for 10 min. The supernatant was filtered through a […] PVDF membrane (Chrome Tech, MN, USA) before analysis.
as §3
Quantitative analysis was conducted using liquid chromatography-tandem mass spectrometry (LC-MS/MS) with a Nexera X2 LCMS-8060NX instrument (Shimadzu, Japan). The instrument included a CBM-40lite system controller, CTO-40C column oven, SIL-40C XR autosampler, LC-40D XR solvent pump unit, FCV-DGU-403 degasser, and 20AH2 switching valve. The LC-MS/MS system was operated with a binary pump and equipped with a triple quadrupole mass spectrometer.
Pharmacokinetic parameters were assessed using PK Solutions software (version 2.0) with non-compartmental analysis. The AUC was calculated using the Linear-Log Trapezoidal Method. The maximum plasma concentration (Cmax) and time to reach maximum plasma concentration (Tmax) were taken directly from the graph.
as §4

[3] = Safety evaluation: physical appearance and blood chemistry after single i.v. or p.o. dose; type: in vivo, Female Sprague Dawley rats; details: for ALP / ALT / AST / BUN / Creatinine: post-dose (24 h), mean ± SD n=6; for Physical appearance: post-dose
Procedure: as §1
Plasma samples were collected at baseline (T0) and T24 h for the determination of blood chemistry, including levels of blood urea nitrogen (BUN), creatinine, aspartate transaminase (AST), alanine transaminase (ALT), and alkaline phosphatase (ALP). The analyses were conducted by the Exclusive Veterinary Professional Laboratory Center (Bangkok, Thailand). The creatinine level was determined using an enzymatic oxidase assay, while AST and ALT levels were determined using the procedure of the International Federation of Clinical Chemistry (IFCC) without pyridoxal phosphate activation.

[4] = Tissue distribution after single oral administration (30 mg/kg); type: in vivo; details: 1–2 h after oral 30 mg/kg
Procedure: Tissue distribution analysis was carried out after a 7-week washout period following the completion of the pharmacokinetic study. The animals received a single oral administration of either 6G, 6S, zingerone, or vehicle at a dosage of 30 mg/kg. Euthanasia was performed using an overdose of isoflurane (>10%) in an induction chamber, either one or 2 h after oral gavage (3 rats/timepoint), and death was confirmed by exsanguination. Subsequently, the stomach, small intestine, liver, large intestine, kidneys, heart, lung, hippocampus, cortex, spleen, ovaries, and spinal cord were collected. The dissected organs were thoroughly cleaned with a cold normal saline solution and the connective tissue was removed. The organs were then precisely weighed before being stored at −40 °C. All processes during tissue collection were performed on ice.
as §2, §4

[5] = feces, iv, 3 mg/kg, intravenous administration 3 mg/kg of parent compound, read-out: % Recovery excretion, feces T 0–24 h
[6] = feces, po, 30 mg/kg, oral administration 30 mg/kg of parent compound, read-out: % Recovery excretion, feces T 0–24 h
[7] = feces, po, 30 mg/kg, oral administration 30 mg/kg of parent compound, read-out: % Recovery excretion, feces T 24–48 h
[8] = urine, iv, 3 mg/kg, intravenous administration 3 mg/kg of parent compound, read-out: % Recovery excretion, urine T 0–24 h
[9] = urine, iv, 3 mg/kg, intravenous administration 3 mg/kg of parent compound, read-out: % Recovery excretion, urine T 24–48 h
[10] = urine, po, 30 mg/kg, oral administration 30 mg/kg of parent compound, read-out: % Recovery excretion, urine T 0–24 h
[11] = urine, po, 30 mg/kg, oral administration 30 mg/kg of parent compound, read-out: % Recovery excretion, urine T 24–48 h
[12] = female, Sprague-Dawley, rat, po, p.o. 30 mg/kg vs i.v. 3 mg/kg of the pure compound, mean ± SD n=6, read-out: %Oral bioavailability
[13] = female, Sprague-Dawley, rat, po, p.o. 30 mg/kg vs i.v. 3 mg/kg of the pure compound, range among rats, read-out: %Oral bioavailability (range)
[14] = female, Sprague-Dawley, rat, po, p.o. 30 mg/kg vs i.v. 3 mg/kg, pure compounds, read-out: absolute oral bioavailability (upper bound)
[15] = female, Sprague-Dawley, rat, po, plasma analyte after [6]-gingerol p.o. 30 mg/kg, mean ± SD n=6
[16] = female, Sprague-Dawley, rat, po, plasma analyte after [6]-gingerol p.o. 30 mg/kg
[17] = female, Sprague-Dawley, rat, po, plasma analyte after [6]-shogaol p.o. 30 mg/kg, mean ± SD n=6

Row | SMILES | parent compound recovered in urine [1] | dose excreted [1, 5] | dose excreted [1, 6] | dose excreted [1, 7] | dose excreted [1, 8] | dose excreted [1, 9] | dose excreted [1, 10] | dose excreted [1, 11] | unchanged form in fecal excretion [1] | bioavailability [2, 12] | bioavailability [2, 13] | bioavailability [2, 14] | AUC(0-inf) [2, 15] | AUC(0-t) [2, 15] | Tmax [2, 16] | presence of parent compound in plasma [2] | ALP ([3]; i.v. 3 mg/kg) | ALT ([3]; i.v. 3 mg/kg) | AST ([3]; i.v. 3 mg/kg) | BUN ([3]; i.v. 3 mg/kg) | other results
1 | CCCCC[C@H](O)CC(=O)CCc1ccc(O)c(OC)c1 [[6]-gingerol] | less than 1% | 0.005 ± 0.002% | 0.001 ± 0.001% | < 0.001% | 0.623 ± 0.706% | 0.008 ± 0.005% | 0.1 ± 0.102% | 0.002 ± 0.001% | < 0.1% | 0.17 ± 0.11% | 0.1 to 0.4% | < 2% | 92.1 ± 26.9 ng·h/mL | 92.1 ± 26.9 ng·h/mL | 4.8 min | up to 4 h | 44.67 ± 7.09 U/L | 20.33 ± 2.42 U/L | 65.83 ± 19.66 U/L | 12.83 ± 2.64 mg/dL | dose excreted ([1]; feces, iv, 3 mg/kg, intravenous administration 3 mg/kg of parent compound, read-out: % Recovery excretion, feces T 24–48 h): 0.005 ± 0.001%; plasma level of converted product ([2]; after oral administration of 6S 30 mg/kg): undetectable; time to detectable plasma levels ([2]; oral administration of pure compound): ≤ 5 min; time to reach peak plasma concentration (Cmax) ([2]; parent compound after oral administration 30 mg/kg): 5 to 45 min; Creatinine ([3]; i.v. 3 mg/kg): 0.73 ± 0.04 mg/dL; ALP ([3]; p.o. 30 mg/kg): 32.67 ± 7.45 U/L; ALT ([3]; p.o. 30 mg/kg): 21.23 ± 2.44 U/L; AST ([3]; p.o. 30 mg/kg): 60.50 ± 7.12 U/L; BUN ([3]; p.o. 30 mg/kg): 12.17 ± 2.86 mg/dL; Creatinine ([3]; p.o. 30 mg/kg): 0.66 ± 0.03 mg/dL; Physical appearance ([3]; i.v. 3 mg/kg): Normal; Physical appearance ([3]; p.o. 30 mg/kg): Normal
2 | CCCCC/C=C/C(=O)CCc1ccc(O)c(OC)c1 [[6]-shogaol] | less than 1% | < 0.001% | 0.001 ± 0.001% | 0.002 ± 0.002% | 0.003 ± 0.002% | < 0.001% | 0.001 ± 0.001% | < 0.001% | < 0.1% | 0.15 ± 0.1% | 0.1 to 0.31% | < 2% | 10.3 ± 4.14 ng·h/mL | 10.2 ± 4.01 ng·h/mL | 15 min | up to 4 h | 49.50 ± 14.46 U/L | 18.83 ± 3.92 U/L | 59.50 ± 5.61 U/L | 14.17 ± 1.72 mg/dL | distribution to brain regions (hippocampus and cortex) [4]: lacking presence in key brain regions; AUC(0-inf) [2, 17]: 66.9 ± 30.5 ng·h/mL; AUC(0-t) [2, 17]: 66.9 ± 30.5 ng·h/mL; Tmax ([2]; female, Sprague-Dawley, rat, po, plasma analyte after [6]-shogaol p.o. 30 mg/kg): 45 min; Cmax [2, 17]: 51.8 ± 20.9 ng/mL; Creatinine ([3]; i.v. 3 mg/kg): 0.73 ± 0.02 mg/dL; ALP ([3]; p.o. 30 mg/kg): 39.17 ± 11.20 U/L; ALT ([3]; p.o. 30 mg/kg): 22.50 ± 5.89 U/L; AST ([3]; p.o. 30 mg/kg): 63.83 ± 11.77 U/L; BUN ([3]; p.o. 30 mg/kg): 14.00 ± 2.00 mg/dL; Creatinine ([3]; p.o. 30 mg/kg): 0.71 ± 0.02 mg/dL; Physical appearance ([3]; i.v. 3 mg/kg): Normal; Physical appearance ([3]; p.o. 30 mg/kg): Normal; Tolerability ([3]; single i.v. 3 mg/kg or p.o. 30 mg/kg): exhibited tolerance
